Measured values reported in patent US8552002B2 (Novartis AG, priority 2004, dated 2013).

Experiments:
Type in all cases: biochemical
KDR = target: T1, KDR (Homo sapiens, UniProt P35968); test: Inhibitory activity against KDR (VEGF-R2), in vitro data of Examples 170 and 207; details: 10 μM; Examples 1 to 169; read-out: KDR inhibition at 10 μM
T1 construct: expressed in transfected cells; host or cells: CHO cells
Procedure: (Controls comprise medium without test compounds). After two hours of incubation at 37° C., recombinant VEGF is added; the final VEGF concentration is 20 ng/ml. After a further five minutes incubation at 37° C., the cells are washed twice with ice-cold PBS (phosphate-buffered saline) and immediately lysed in 100 μl lysis buffer per well. The lysates are then centrifuged to remove the cell nuclei, and the protein concentrations of the supernatants are determined using a commercial protein assay (BIORAD). The lysates can then either be immediately used or, if necessary, stored at −20° C. […] The plates are then washed and the remaining free protein-binding sites are saturated with 3% TopBlock® (Juro, Cat. # TB232010) in phosphate buffered saline with Tween 20® (polyoxyethylen(20)sorbitane monolaurate, ICI/Uniquema) (PBST). The cell lysates (20 μg protein per well) are then incubated in these plates overnight at 4° C. together with an antiphosphotyrosine antibody coupled with alkaline phosphatase (PY20:AP from Zymed). […] The luminescence is measured in a Packard Top Count Microplate Scintillation Counter.

FGFR3 (K650E) = target: T2, FGFR3 (K650E) (Homo sapiens, UniProt P22607, K650E); test: Recombinant GST-FGFR-3-K650E tyrosine kinase assay (33P into poly(Glu,Tyr)); details: 10 μM; Examples 1 to 169; read-out: FGFR3 (K650E) inhibition at 10 μM
T2 construct: amino acids 411-806 of the cytoplasmic domain of human FGFR-3, N-terminally fused to GST; made in house; host or cells: Sf9 insect cells (baculovirus)
T2 sequence (P22607 411-806 K650E): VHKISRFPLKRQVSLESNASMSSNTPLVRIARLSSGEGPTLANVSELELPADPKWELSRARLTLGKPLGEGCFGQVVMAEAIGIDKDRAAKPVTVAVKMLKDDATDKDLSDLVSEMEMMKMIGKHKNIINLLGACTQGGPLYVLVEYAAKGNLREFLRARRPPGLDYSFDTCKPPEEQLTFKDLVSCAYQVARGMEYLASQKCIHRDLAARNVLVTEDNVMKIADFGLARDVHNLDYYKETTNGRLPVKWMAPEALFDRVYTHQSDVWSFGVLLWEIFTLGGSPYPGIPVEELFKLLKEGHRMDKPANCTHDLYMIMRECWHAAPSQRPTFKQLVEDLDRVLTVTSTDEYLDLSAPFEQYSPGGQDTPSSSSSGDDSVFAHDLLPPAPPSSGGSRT

Tek = target: T3, Tek (Homo sapiens, UniProt Q02763); test: Recombinant GST-Tek (Tie-2) tyrosine kinase assay (33P into poly(Glu,Tyr)); details: Examples 1 to 169
T3 construct: amino acids 773-1124 of the cytoplasmic kinase domain of human Tek, N-terminally fused to GST; made in house; host or cells: Sf9 insect cells (baculovirus)
T3 sequence (Q02763 773-1124): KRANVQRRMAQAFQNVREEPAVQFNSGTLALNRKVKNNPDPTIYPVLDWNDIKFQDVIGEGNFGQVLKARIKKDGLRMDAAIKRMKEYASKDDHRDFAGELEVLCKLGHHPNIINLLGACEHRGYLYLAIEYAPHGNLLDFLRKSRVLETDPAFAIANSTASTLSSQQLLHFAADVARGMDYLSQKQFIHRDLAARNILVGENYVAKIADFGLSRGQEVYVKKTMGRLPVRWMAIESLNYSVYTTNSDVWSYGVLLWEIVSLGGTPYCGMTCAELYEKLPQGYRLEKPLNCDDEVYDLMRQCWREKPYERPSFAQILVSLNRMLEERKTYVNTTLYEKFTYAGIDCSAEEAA
Text: (Tie-2/Tek): The baculovirus donor vector pFbacG01 was used to generate a recombinant baculovirus that expressed the amino acid region amino acids 773-1124 of the cytoplasmic kinase domain of human Tek, N-terminally fused to GST (Provided by Dr. Marmé, Institute of Molecular Medicine, Freiburg, Germany based on a Research Collaboration). Tek was recloned into the pFbacG01 transfer vector by EcoRI excision and ligation into EcoRI digested pFbacG01 (FBG-Tie2/Tek).
Production of virus: Transfer vectors containing the kinase domains were transfected into the DH10Bac cell line (GIBCO) and plated on selective agar plates. Colonies without insertion of the fusion sequence into the viral genome (carried by the bacteria) are blue. Single white colonies were picked and viral DNA (bacmid) isolated from the bacteria by standard plasmid purification procedures. Sf9 cells or Sf21 cells were then transfected in 25 cm^2 flasks with the viral DNA using Cellfectin reagent.
Determination of small scale protein expression in Sf9 cells: Virus containing media was collected from the transfected cell culture and used for infection to increase its titer. Virus containing media obtained after two rounds of infection was used for large-scale protein expression. For large-scale protein expression 100 cm^2 round tissue culture plates were seeded with 5×10^7 cells/plate and infected with 1 mL of virus-containing media (approx. 5 MOIs). After 3 days the cells were scraped off the plate and centrifuged at 500 rpm for 5 min. Cell pellets from 10-20, 100 cm^2 plates, were resuspended in 50 mL of ice-cold lysis buffer (25 mMTris-HCl, pH7.5, 2 mMEDTA, 1% NP-40, 1 mM DTT, 1 mMP MSF). The cells were stirred on ice for 15 min and then centrifuged at 5000 rpms for 20 min.
Purification of GST-tagged proteins: The centrifuged cell lysate was loaded onto a 2 mL glutathione-sepharose column and washed three times with 10 mL of 25 mM Tris-HCl, pH 7.5, 2 mM EDTA, 1 mM DTT, 200 mM NaCl. The GST-tagged proteins were then eluted by 10 applications (1 mL each) of 25 mM Tris-HCl, pH 7.5, 10 mM reduced-glutathione, 100 mM NaCl, 1 mM DTT, 10% Glycerol and stored at −70° C.
Measure of enzyme activity: Tyrosine protein kinase assays with either purified GST-Ret, GST-Tek or GST-FGFR-3-K650E were carried out in a final volume of 30 μL with final concentrations of the following components: Ret included 15 ng of GST-Ret, 20 mM Tris-HCl, pH 7.5, 1 mM MnCl2, 10 mM MgCl2, 1 mM DTT, 3 μg/mL poly(Glu,Tyr) 4:1, 1% DMSO and 2.0 μM ATP (γ-[^33P]-ATP 0.1 μCi). Tek included 150 ng of GST-Tek, 20 mM Tris-HCl, pH 7.5, 3 mM MnCl2, 3 mM MgCl2, 1 mM DTT, 0.01 mM Na3VO4, 250 μg/mL PEG 20'000, 10 μg/mL poly(Glu,Tyr) 4:1, 1% DMSO and 4.0 μM ATP (γ-[^33P]-ATP 0.1 μCi). FGFR-3-K650E included 10 ng of GST-FGFR-3-K650E, 20 mM Tris-HCl, pH 7.5, 3 mM MnCl2, 3 mM MgCl2, 1 mM DTT, […], 10 μg/mL poly(Glu,Tyr) 4:1, 1% DMSO and 4.0 μM ATP (γ-[^33P]-ATP 0.1 μCi).The activity was assayed in the presence or absence of inhibitors, by measuring the incorporation of ^33P from [γ^33P] ATP into poly(Glu,Tyr) 4:1. The assay was carried out in 96-well plates at ambient temperature for 30 min under conditions described below and terminated by the addition of 50 μL of 125 mM EDTA. Subsequently, 60 μL of the reaction mixture were transferred onto Immobilon-PVDF membrane (Millipore) previously soaked for 5 min with methanol, rinsed with water, then soaked for 5 min with 0.5% H3PO4 and mounted on vacuum manifold with disconnected vacuum source. After spotting all samples, vacuum was connected and each well rinsed with 200 μL 0.5% H3PO4. Membranes were removed and washed 4× on a shaker with 1.0% H3PO4, once with ethanol. Membranes were counted after drying at ambient temperature, mounting in Packard TopCount 96-well frame, and addition of 10 μL/well of Microscint™ (Packard). […]

T1 sequence (P35968 20-1356): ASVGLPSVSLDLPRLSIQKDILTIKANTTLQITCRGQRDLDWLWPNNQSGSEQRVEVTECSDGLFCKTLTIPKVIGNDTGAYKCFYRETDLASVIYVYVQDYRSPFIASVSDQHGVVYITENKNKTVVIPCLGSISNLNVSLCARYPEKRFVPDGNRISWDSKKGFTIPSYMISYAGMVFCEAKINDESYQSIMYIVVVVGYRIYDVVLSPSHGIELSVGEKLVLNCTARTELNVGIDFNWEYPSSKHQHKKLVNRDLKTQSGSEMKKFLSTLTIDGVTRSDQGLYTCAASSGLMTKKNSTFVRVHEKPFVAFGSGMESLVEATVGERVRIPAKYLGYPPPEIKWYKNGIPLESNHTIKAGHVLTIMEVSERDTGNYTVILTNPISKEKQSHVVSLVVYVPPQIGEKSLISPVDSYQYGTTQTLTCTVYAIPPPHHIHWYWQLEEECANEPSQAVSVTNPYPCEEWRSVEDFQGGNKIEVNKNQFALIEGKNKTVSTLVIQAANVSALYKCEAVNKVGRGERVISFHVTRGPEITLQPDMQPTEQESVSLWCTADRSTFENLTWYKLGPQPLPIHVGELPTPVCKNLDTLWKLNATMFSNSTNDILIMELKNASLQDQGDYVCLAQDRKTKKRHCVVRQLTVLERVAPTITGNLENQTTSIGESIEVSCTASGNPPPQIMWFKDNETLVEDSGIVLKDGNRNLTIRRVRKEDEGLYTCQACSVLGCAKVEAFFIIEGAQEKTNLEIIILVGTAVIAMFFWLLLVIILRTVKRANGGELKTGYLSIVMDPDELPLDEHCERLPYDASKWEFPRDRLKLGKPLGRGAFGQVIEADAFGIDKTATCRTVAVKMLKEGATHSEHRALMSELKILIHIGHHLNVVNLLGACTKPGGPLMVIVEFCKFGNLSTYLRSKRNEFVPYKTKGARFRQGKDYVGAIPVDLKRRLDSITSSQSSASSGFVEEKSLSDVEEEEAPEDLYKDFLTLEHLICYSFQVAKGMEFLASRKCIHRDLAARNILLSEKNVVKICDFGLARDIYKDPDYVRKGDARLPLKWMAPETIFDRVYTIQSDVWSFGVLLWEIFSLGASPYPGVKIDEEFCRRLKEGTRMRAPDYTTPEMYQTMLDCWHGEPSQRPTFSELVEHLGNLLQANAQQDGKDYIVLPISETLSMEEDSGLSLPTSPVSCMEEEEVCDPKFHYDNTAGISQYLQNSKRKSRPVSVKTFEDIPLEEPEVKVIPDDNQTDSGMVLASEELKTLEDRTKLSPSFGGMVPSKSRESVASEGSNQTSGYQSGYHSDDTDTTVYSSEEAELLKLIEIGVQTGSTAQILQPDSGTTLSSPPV

inhibition at 10 µM (KDR) [%] | inhibition at 10 µM (FGFR3 (K650E)) [%] | inhibition at 10 µM (Tek) [%] | SMILES
67 to 100 | 27 to 100 | 12 to 100 | COc1ccc(Cl)c(NC(=O)N(C)c2cc(Nc3ccc(C(=O)N4CCN(C)CC4)cc3)ncn2)c1Cl [Example 61, 3-(2,6-Dichloro-3-methoxy-phenyl)-1-methyl-1-{6-[4-(4-methyl-piperazine-1-carbonyl)-phenylamino]-pyrimidin-4-yl}-urea]
67 to 100 | 27 to 100 | 12 to 100 | O=C(Nc1cc(Nc2cccc(Cl)c2)ncn1)Nc1ccccc1C(F)(F)F [Example 133, 1-[6-(3-Chloro-phenylamino)-pyrimidin-4-yl]-3-(2-trifluoromethyl-phenyl)-urea]
67 to 100 | 27 to 100 | 12 to 100 | CCN(CC)CCOc1ccc(Nc2cc(NC(=O)Nc3c(Cl)cccc3Cl)ncn2)cc1 [Example 100, 1-(2,6-Dichloro-Phenyl)-3-{6-[4-(2-diethylamino-ethoxy)-phenylamino]-pyrimidin-4-yl}-urea]
67 to 100 | 27 to 100 | 12 to 100 | COc1cc(OC)c(Cl)c(NC(=O)N(C)c2cc(Nc3cccc(CN4CCN(C(C)C)CC4)c3)ncn2)c1Cl [Example 161, 3-(2,6-Dichloro-3,5-dimethoxy-phenyl)-1-{6-[3-(4-isopropyl-piperazin-1-ylmethyl)-phenylamino]-pyrimidin-4-yl}-1-methyl-urea]
67 to 100 | 27 to 100 | 12 to 100 | COc1cccc(NC(=O)Nc2cc(Nc3cccc(N4CCN(C)CC4)c3)ncn2)c1 [Example 9, 1-(3-Methoxy-phenyl)-3-{6-[3-(4-methyl-piperazin-1-yl)-phenylamino]-py-rimidin-4-yl}-urea]
67 to 100 | 27 to 100 | 12 to 100 | COc1ccc(Cl)c(NC(=O)Nc2cc(Nc3cccc(OCCN4CCOCC4)c3)ncn2)c1Cl [Example 37, 1-(2,6-Dichloro-3-methoxy-phenyl)-3-{6-[3-(2-morpholin-4-yl-ethoxy)-phenylamino]-pyrimidin-4-yl}-urea]
67 to 100 | 27 to 100 | 12 to 100 | CN1CCN(c2ccc(Nc3cc(NC(=O)Nc4ccccc4Cl)ncn3)cc2)CC1 [Example 93, 1-(2-Chloro-phenyl)-3-{6-[4-(4-methyl-piperazin-1-yl)-phenylamino]-pyrimidin-4-yl}-urea]
67 to 100 | 27 to 100 | 12 to 100 | COc1ccc(C)c(NC(=O)Nc2cc(Nc3cccc(N4CCN(C)CC4)c3)ncn2)c1 [Example 27, 1-(5-Methoxy-2-methyl-phenyl)-3-{6-[3-(4-methyl-piperazin-1-yl)-phenyl-amino]-pyrimidin-4-yl}-urea]
67 to 100 | 27 to 100 | 12 to 100 | CCN(CC)CCOc1ccc(Nc2cc(NC(=O)Nc3ccccc3Br)ncn2)cc1 [Example 101, 1-(2-Bromo-phenyl)-3-{6-[4-(2-diethylamino-ethoxy)-phenylamino]-pyrimidin-4-yl}-urea]
67 to 100 | 27 to 100 | 12 to 100 | Cc1cc(C)cc(NC(=O)Nc2cc(Nc3cccc(N4CCN(C)CC4)c3)ncn2)c1 [Example 23, 1-(3,5-Dimethyl-Phenyl)-3-{6-[3-(4-methyl-piperazin-1-yl)-phenyl-amino]-pyrimidin-4-yl}-urea]
67 to 100 | 27 to 100 | 12 to 100 | CN(C)c1cccc(Nc2cc(NC(=O)Nc3c(Cl)cccc3Cl)ncn2)c1 [Example 119, 1-(2,6-Dichloro-phenyl)-3-[6-(3-dimethylamino-phenylamino)-pyrimidin-4-yl]-urea]
67 to 100 | 27 to 100 | 12 to 100 | Cc1cccc(C)c1NC(=O)Nc1cc(Nc2cccc(Cl)c2)ncn1 [Example 140, 1-[6-(3-Chloro-phenylamino)-pyrimidin-4-yl]-3-(2,6-dimethyl-phenyl)-urea]
67 to 100 | 27 to 100 | 12 to 100 | COc1ccc(NC(=O)Nc2cc(Nc3cccc(N4CCN(C)CC4)c3)ncn2)cc1OC [Example 31, 1-(3,4-Dimethoxy-Phenyl)-3-{6-[3-(4-methyl-piperazin-1-yl)-phenyl-amino]-pyrimidin-4-yl}-urea]
67 to 100 | 27 to 100 | 12 to 100 | COc1ccc(NC(=O)Nc2cc(Nc3ccc(N4CCN(C)CC4)cc3)ncn2)cc1OC [Example 30, 1-(3,4-Dimethoxy-phenyl)-3-{6-[4-(4-methyl-piperazin-1-yl)-phenyl-amino]-pyrimidin-4-yl}-urea]
67 to 100 | 27 to 100 | 12 to 100 | COc1ccc(NC(=O)N(C)c2cc(Nc3ccc(F)cc3)ncn2)cc1 [Example 116, 1-[6-(4-Fluoro-Phenylamino)-pyrimidin-4-yl]-3-(4-methoxy-phenyl)-1-methyl-urea]
67 to 100 | 27 to 100 | 12 to 100 | COc1ccc(OC)c(NC(=O)Nc2cc(Nc3cccc(Cl)c3)ncn2)c1 [Example 132, 1-[6-(3-Chloro-phenylamino)-pyrimidin-4-yl]-3-(2,5-dimethoxy-phenyl)-urea]
67 to 100 | 27 to 100 | 12 to 100 | CCN(C(=O)Nc1c(Cl)c(OC)cc(OC)c1Cl)c1cc(Nc2ccc(N3CCN(C)CC3)cc2)ncn1 [Example 143, 3-(2,6-Dichloro-3,5-dimethoxy-phenyl)-1-ethyl-1-{6-[4-(4-methyl-piperazin-1-yl)-phenylamino]-pyrimidin-4-yl}-urea]
